The results in this text go back to article PMC2365111, “Cytotoxicity of Poly(Phenolic)Sulfonates and Their Sodium Salts in L1210 Lymphoid Leukemia Cells” (Metal-Based Drugs, 1998).

One assay concerns tRNA polymerase. The assay is described as follows: Transfer-RNA polymerase activity, L1210. Type of assay: biochemical, mouse. The following applies: 60 min, N=6. The source says:
(§1) CYTOTOXlCITY OF POLY(PHENOLIC)SULFONATES AND THEIR SODIUM SALTS IN L1210 LYMPHOID LEUKEMIA CELLS Fei Wang, Amy E. Warren, Cheryl R. Barnes and Iris H. Hall* Division of Medicinal Chemistry and Natural Products University of North Carolina Chapel Hill, N.C. […] Because ofthese properties it was surmised that these poly(phenolic)sulfonated compounds may have antineoplastic activity. METHODS Source of Compounds Test compounds were supplied by GeneLabs, Inc. [Redwood City, CA [Table 1]. Radioisotopes were obtained from New England Nuclear [Dupont, Boston, MA]. Substrates and co-factors were purchased om Sigma Chemical Co., [St Louis, MO]. Pentosan sulfate and other antineoplastic standards were obtained from Sigma Chemical Co. Tumor lines were obtained from American Type Culture Collection [Rockville, MD]. 147 Vol. 5, No. 3, 1998 Cytotoxicity ofSodium Poly(Phenolic)Sulfonates in L1210 Lymphoid Leukemia Cells Table 1 Structures of Poly(phenolic)sulfonate Compounds O2R" n Compound R' R" n MW # G1-2041 H OH 8 1489.46 G1-2029 H OH 6 1117.09 G1-2030 H OH 4 744.73 GI-2021 CH3 ONa 8 1777.5 G1-2057 CH3 ONa 4 888.75 GI-2158 CH3 ONa 6 1333.13 GI-2063 OCH3 ONa 8 2001.65 G1-2042 OAc ONa 8 2017.73 Cytotoxicity Poly(phenolic)sulfonates were tested for cytotoxic activity by homogenizing drug in 0.05% Tween 80/H20 to give a mg/ml stock concentration. These solutions were sterilized by passing them through an acrodisc ([…]). The following cell lines were maintained by literature techniques: murine L1210 lymphoid leukemia, P-388 lymphocytic leukemia, rat UMR 106 osteosarcoma, human Tmolt3 acute lymphoblastic T cell leukemia, HUT-8 lymphoma, HeLa-S suspended cervical carcinoma, HeLa solid cervical carcinoma, KB epidermoid nasopharynx, A431 epidermoid carcinoma, colorectal adenocarcinoma SW480, HCT-8 ileocecal adenocarcinoma, lung bronchogenic MB-9812, A549 lung carcinoma, and glioma HS683. Geran et al.'s protocol was used to assess the cytotoxicity of the compounds and standards in each cell line. Cell numbers were determined by the trypan blue exclusion technique. Solid tumor cytotoxicity was determined by Leibovitz et al. 's method utilizing crystal violeeOH and read at 562 nm (Molecular Devices). Values for cytotoxicity were expressed as EDs0 g/ml, i.e. the concentration ofthe compound inhibiting 50% ofcell growth. A value of less than 4 µg/ml was required for significant activity ofgrowth inhibition. Incorporation Studies Incorporation of labeled precursors into 3H-DNA, 3H -RNA and 3H -protein for 10 L1210 cells was obtained. The concentration response for inhibition of DNA, RNA and protein synthesis of the compounds at 25, 50 and 100 l.tM was determined for 60 min incubations. Incorporation of 14C -glycine (53.0 mCi/mmol) into purines was obtained by the method of Cadman et al.[12]. Incorporation of 4C- formate (53.0 mCi/mmol) into pyrimidines was determined by the method of Christopherson et al.[13]. Enzyme Assays Inhibition of various enzyme activities was performed by first preparing the appropriate L1210 cell homogenates or subcellular fractions, then adding the drug to be tested during the enzyme assay. For the concentration response studies, inhibition of enzyme activity was determined at 25, 50 and 100 l.tM of compounds G1-2021, G1-2029, GI-2041 and G1-2063 after 60 min incubations. DNA polymerase Ot activity was determined in cytoplasmic extracts isolated by Eichler et aL's method. The DNA polymerase assay was described by Sedwick et al.[15] using 3H-TTP. Messenger-, ribosomal- and transfer-RNA polymerase enzymes were isolated with different concentrations of ammonium sulfate; individual RNA polymerase activities were determined using 3H -UTP 16,17]. Ribonucleoside reductase activity was measured using 4C -CDP with dithioerythritol. The deoxyribonucleotides 4C -dCDP were separated from the ribonucleotides by TLC on PEI plates. […]

A further assay has as its system L1210 DNA synthesis. The assay is described as follows: Incorporation of labeled precursor into DNA. Type of assay: cell-based, mouse. The following applies: 60 min, N=6.
Source text: as §1

A further assay has as its system L1210 DNA. Kind of assay: L1210 DNA strand scission, alkaline-sucrose gradient. Format: cell-based, mouse. To be noted: 100 μM, 24 hr. The source says:
(§2) CYTOTOXlCITY OF POLY(PHENOLIC)SULFONATES AND THEIR SODIUM SALTS IN L1210 LYMPHOID LEUKEMIA CELLS Fei Wang, Amy E. Warren, Cheryl R. Barnes and Iris H. Hall* Division of Medicinal Chemistry and Natural Products University of North Carolina Chapel Hill, N.C. […] Because ofthese properties it was surmised that these poly(phenolic)sulfonated compounds may have antineoplastic activity. METHODS Source of Compounds Test compounds were supplied by GeneLabs, Inc. [Redwood City, CA [Table 1]. Radioisotopes were obtained from New England Nuclear [Dupont, Boston, MA]. Substrates and co-factors were purchased om Sigma Chemical Co., [St Louis, MO]. […] Cell numbers were determined by the trypan blue exclusion technique. Solid tumor cytotoxicity was determined by Leibovitz et al. 's method utilizing crystal violeeOH and read at 562 nm (Molecular Devices). Values for cytotoxicity were expressed as EDs0 g/ml, i.e. the concentration ofthe compound inhibiting 50% ofcell growth. […] Incorporation of 4C- formate (53.0 mCi/mmol) into pyrimidines was determined by the method of Christopherson et al.[13]. […] DNA polymerase Ot activity was determined in cytoplasmic extracts isolated by Eichler et aL's method. […] Messenger-, ribosomal- and transfer-RNA polymerase enzymes were isolated with different concentrations of ammonium sulfate; individual RNA polymerase activities were determined using 3H -UTP 16,17]. […]

Assay [1] deals with HeLa-S suspended cervical carcinoma. The assay is described as follows: Cytotoxicity, HeLa-S3 growth. Format: cell-based, human.
Source text: as §2

Another assay concerns Thymidine kinase. The assay is described as follows: Thymidine kinase activity, L1210. Type of assay: biochemical, mouse. The following applies: 60 min, N=6.
Source text: as §1

Another assay has as its target T1, DNA polymerase α (Mus musculus, UniProt P33609).
T1 construct: endogenous in cells; host or cells: L1210 murine lymphoid leukemia cells, cytoplasmic extract
The assay is described as follows: DNA polymerase alpha activity, L1210 cytoplasmic extracts. Type of assay: biochemical. The following applies: for DNA polymerase α: 60 min, N=6; for DNA polymerase activity time course, in words: 50 μM over 2 hr.
Source text: as §1

Assay [2] concerns Thymidine diphosphate kinase. The assay is described as follows: TDP kinase activity, L1210. Format: biochemical, mouse. To be noted: 60 min, N=6.
Source text: as §1

The subject of assay [3] is KB epidermoid nasopharynx. Kind of assay: Cytotoxicity, KB growth. Format: cell-based, human.
Source text: as §2, with “MO]. Pentosan sulfate and other antineoplastic standards were obtained from Sigma Chemical Co. Tumor lines were obtained from American Type Culture Collection [Rockville, MD].” for “MO].”, “16,17]. Ribonucleoside reductase activity was measured using 4C -CDP with dithioerythritol.” for “16,17].”

For assay [4], the system named is HeLa solid cervical carcinoma. The assay is described as follows: Cytotoxicity, solid HeLa growth. Format: cell-based, human.
Source text: as §2

The test system of assay [5] is colorectal adenocarcinoma SW480. The assay is described as follows: Cytotoxicity, SW480 growth. Type of assay: cell-based, human.
Source text: as §1, with “Geran et al.'s protocol was used to assess the cytotoxicity of the compounds and standards in each cell line.” left out, “A value of less than 4 µg/ml was required for significant activity ofgrowth inhibition. Incorporation Studies Incorporation of labeled precursors into 3H-DNA, 3H -RNA and 3H -protein for 10 L1210 cells was obtained. The concentration response for inhibition of DNA, RNA and protein synthesis of the compounds at 25, 50 and 100 l.tM was determined for 60 min incubations. Incorporation of 14C -glycine (53.0 mCi/mmol) into purines was obtained by the method of Cadman et al.[12].” left out, “Enzyme Assays Inhibition of various enzyme activities was performed by first preparing the appropriate L1210 cell homogenates or subcellular fractions, then adding the drug to be tested during the enzyme assay. For the concentration response studies, inhibition of enzyme activity was determined at 25, 50 and 100 l.tM of compounds G1-2021, G1-2029, GI-2041 and G1-2063 after 60 min incubations.” left out, “The DNA polymerase assay was described by Sedwick et al.[15] using 3H-TTP.” left out, “dithioerythritol.” for “dithioerythritol. The deoxyribonucleotides 4C -dCDP were separated from the ribonucleotides by TLC on PEI plates.”

[6] abbreviates: concentration inhibiting 50% of cell growth.

In brackets after ≈: the same amount, converted by molar mass.

T1 sequence (P33609 whole entry): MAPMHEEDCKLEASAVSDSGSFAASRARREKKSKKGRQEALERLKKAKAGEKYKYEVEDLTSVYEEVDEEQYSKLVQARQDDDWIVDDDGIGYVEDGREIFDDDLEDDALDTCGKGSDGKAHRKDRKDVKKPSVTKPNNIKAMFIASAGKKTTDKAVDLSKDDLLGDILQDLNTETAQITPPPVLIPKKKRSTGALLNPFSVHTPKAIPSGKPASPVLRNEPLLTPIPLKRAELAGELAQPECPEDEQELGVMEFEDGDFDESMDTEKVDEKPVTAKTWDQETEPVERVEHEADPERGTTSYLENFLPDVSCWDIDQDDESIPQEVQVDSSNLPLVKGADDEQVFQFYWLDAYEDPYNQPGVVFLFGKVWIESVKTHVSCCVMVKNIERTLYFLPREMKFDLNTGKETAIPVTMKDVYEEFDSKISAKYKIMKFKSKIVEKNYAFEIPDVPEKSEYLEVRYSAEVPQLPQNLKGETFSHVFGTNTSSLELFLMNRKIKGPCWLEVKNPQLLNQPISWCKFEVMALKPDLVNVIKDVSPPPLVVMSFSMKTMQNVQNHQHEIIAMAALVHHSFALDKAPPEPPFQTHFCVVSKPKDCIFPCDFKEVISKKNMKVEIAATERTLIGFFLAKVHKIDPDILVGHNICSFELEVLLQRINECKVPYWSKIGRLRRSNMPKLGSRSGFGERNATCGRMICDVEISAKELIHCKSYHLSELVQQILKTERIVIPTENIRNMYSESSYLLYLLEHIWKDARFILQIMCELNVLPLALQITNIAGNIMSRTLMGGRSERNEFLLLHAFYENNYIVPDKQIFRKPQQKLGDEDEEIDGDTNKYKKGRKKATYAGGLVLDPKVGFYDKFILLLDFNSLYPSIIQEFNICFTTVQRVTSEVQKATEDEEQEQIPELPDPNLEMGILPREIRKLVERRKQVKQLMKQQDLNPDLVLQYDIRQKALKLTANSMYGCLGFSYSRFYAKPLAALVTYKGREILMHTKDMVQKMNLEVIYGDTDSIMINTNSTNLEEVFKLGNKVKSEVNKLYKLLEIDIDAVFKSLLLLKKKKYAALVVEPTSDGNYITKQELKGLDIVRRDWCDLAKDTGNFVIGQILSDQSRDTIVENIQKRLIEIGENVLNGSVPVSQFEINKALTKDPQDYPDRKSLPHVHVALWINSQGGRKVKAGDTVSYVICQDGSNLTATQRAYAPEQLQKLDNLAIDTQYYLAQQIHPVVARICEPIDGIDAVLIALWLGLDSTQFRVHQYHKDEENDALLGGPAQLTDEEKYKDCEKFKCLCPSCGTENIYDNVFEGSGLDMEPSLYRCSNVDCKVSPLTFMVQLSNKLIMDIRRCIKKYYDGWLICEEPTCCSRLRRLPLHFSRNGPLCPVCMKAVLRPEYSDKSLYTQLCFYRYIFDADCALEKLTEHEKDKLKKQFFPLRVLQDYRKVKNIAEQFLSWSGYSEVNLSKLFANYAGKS
T1 sequence (P33611 whole entry partner): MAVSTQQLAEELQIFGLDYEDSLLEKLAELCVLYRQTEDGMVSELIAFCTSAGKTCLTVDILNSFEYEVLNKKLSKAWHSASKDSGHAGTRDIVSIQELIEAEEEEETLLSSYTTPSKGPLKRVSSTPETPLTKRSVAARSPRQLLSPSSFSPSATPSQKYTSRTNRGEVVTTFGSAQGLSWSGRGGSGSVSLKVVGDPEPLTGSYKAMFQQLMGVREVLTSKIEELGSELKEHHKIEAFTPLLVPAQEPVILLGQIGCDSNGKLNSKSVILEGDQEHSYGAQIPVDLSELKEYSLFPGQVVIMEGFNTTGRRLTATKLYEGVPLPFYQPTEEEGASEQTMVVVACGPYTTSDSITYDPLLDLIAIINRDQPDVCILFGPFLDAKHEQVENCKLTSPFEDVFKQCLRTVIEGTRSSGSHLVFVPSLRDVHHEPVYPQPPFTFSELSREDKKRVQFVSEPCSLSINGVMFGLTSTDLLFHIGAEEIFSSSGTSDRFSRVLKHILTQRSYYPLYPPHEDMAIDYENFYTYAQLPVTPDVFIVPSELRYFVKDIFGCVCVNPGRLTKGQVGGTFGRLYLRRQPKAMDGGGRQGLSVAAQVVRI
T1 sequence (P20664 whole entry partner): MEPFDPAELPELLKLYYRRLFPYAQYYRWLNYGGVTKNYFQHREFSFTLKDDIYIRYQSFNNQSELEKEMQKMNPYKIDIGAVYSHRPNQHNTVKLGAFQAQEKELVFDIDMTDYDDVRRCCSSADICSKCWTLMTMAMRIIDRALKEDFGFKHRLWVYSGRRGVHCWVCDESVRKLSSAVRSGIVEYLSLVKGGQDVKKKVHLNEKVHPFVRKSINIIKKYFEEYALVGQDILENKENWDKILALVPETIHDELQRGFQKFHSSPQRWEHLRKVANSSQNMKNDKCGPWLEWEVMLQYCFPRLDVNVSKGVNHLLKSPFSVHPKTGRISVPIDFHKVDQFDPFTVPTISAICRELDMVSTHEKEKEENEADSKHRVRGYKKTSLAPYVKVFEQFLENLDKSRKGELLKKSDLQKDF
T1 sequence (P33610 whole entry partner): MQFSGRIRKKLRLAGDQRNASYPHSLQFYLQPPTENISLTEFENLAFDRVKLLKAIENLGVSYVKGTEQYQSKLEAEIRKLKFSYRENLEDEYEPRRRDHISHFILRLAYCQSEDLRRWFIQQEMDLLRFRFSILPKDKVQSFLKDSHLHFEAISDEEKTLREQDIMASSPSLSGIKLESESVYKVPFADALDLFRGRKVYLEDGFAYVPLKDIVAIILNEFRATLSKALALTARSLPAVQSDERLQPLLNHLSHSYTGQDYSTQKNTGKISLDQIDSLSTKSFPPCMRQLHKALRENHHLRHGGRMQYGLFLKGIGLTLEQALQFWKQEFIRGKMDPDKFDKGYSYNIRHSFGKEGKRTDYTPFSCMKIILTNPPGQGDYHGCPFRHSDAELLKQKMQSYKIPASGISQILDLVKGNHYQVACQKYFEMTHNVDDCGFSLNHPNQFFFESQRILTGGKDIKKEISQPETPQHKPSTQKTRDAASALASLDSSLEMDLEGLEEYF

For `O=S(=O)(O)c1cc2c(O)c(c1)Cc1cc(S(=O)(=O)O)cc(c1O)Cc1cc(S(=O)(=O)O)cc(c1O)Cc1cc(S(=O)(=O)O)cc(c1O)Cc1cc(S(=O)(=O)O)cc(c1O)Cc1cc(S(=O)(=O)O)cc(c1O)C2` [GI-2029], the figures for the tRNA polymerase with tRNA polymerase (25 μM) and in the assay on tRNA polymerase (50 μM) were 103+5% of Control and 98+5% of Control, respectively. For the same molecule, the DNA synthesis in the assay with L1210 DNA synthesis (50 μM) is 78+3% of Control. Moreover, in the assay on L1210 DNA, the “L1210 DNA fragmentation, in words” value is “more moderated”. For the same molecule, the “growth suppression, in words” value in [1] is on record as “best activity”. The Thymidine kinase in the assay with Thymidine kinase (25 μM) was 105+6% of Control; with Thymidine kinase (50 μM), 104+6% of Control. Besides, the “DNA polymerase α” value on DNA polymerase α (25 μM) is 70+3% of Control; on DNA polymerase α (50 μM) it was 60+3% of Control; at DNA polymerase α (100 μM) it was 44+3% of Control. On DNA polymerase α, the “DNA polymerase activity time course, in words” value is “activity remained suppressed at 60 and 90 min”. Also, the Thymidine diphosphate kinase in assay [2] (25 μM) is listed as 57+3% of Control; in assay [2] (100 μM), 27+3% of Control.
Turning to `O=S(=O)(O)c1cc2c(O)c(c1)Cc1cc(S(=O)(=O)O)cc(c1O)Cc1cc(S(=O)(=O)O)cc(c1O)Cc1cc(S(=O)(=O)O)cc(c1O)Cc1cc(S(=O)(=O)O)cc(c1O)Cc1cc(S(=O)(=O)O)cc(c1O)Cc1cc(S(=O)(=O)O)cc(c1O)Cc1cc(S(=O)(=O)O)cc(c1O)C2` [GI-2041], the tRNA polymerase in the assay on tRNA polymerase (25 μM) is recorded as 108+6% of Control. Moreover, the DNA synthesis in the assay with L1210 DNA synthesis (25 μM) was 98+6% of Control; in the assay on L1210 DNA synthesis (50 μM) it was 84+5% of Control; with L1210 DNA synthesis (100 μM), 33+5% of Control. Also, the results for the Thymidine kinase with Thymidine kinase (25 μM) and with Thymidine kinase (50 μM) were 116+5% of Control and 104+5% of Control, respectively. Besides, on DNA polymerase α (25 μM), the “DNA polymerase α” value is reported as 85+5% of Control. For the same molecule, the “DNA polymerase activity time course, in words” value on DNA polymerase α is given as “returned to normal at 90 min”. In addition, the Thymidine diphosphate kinase in [2] (25 μM) is 89+5% of Control; in assay [2] (50 μM), 64+5% of Control; in assay [2] (100 μM) it was 54+3% of Control. For the same molecule, the “activity, in words” value in assay [3] is recorded as “active”. The ED50 in assay [3] (setting [6]) was 2.60 µg/mL (≈ 1.75 µM).
Take `COc1c2cc(S(=O)(=O)[O-])cc1Cc1cc(S(=O)(=O)[O-])cc(c1OC)Cc1cc(S(=O)(=O)[O-])cc(c1OC)Cc1cc(S(=O)(=O)[O-])cc(c1OC)Cc1cc(S(=O)(=O)[O-])cc(c1OC)Cc1cc(S(=O)(=O)[O-])cc(c1OC)Cc1cc(S(=O)(=O)[O-])cc(c1OC)Cc1cc(S(=O)(=O)[O-])cc(c1OC)C2.[Na+].[Na+].[Na+].[Na+].[Na+].[Na+].[Na+].[Na+]` [GI-2021]: the tRNA polymerase with tRNA polymerase (25 μM) is listed as 98+5% of Control; in the assay with tRNA polymerase (50 μM) it was 85+5% of Control; in the assay on tRNA polymerase (100 μM) it was 76+4% of Control. Further, the DNA synthesis with L1210 DNA synthesis (25 μM) is reported as 105+6% of Control; with L1210 DNA synthesis (50 μM), 77+5% of Control; in the assay on L1210 DNA synthesis (100 μM), 39+5% of Control. Further, the “activity, in words” value is listed as “effective” in [4] and “active” in assay [5]. Further, the figures for the ED50 in [4] (setting [6]) and in [5] (setting [6]) were 1.97 µg/mL and “less than 2 μg/ml”, respectively. For the same molecule, the “L1210 DNA fragmentation, in words” value with L1210 DNA is recorded as “more evident”. Further, the Thymidine kinase in the assay on Thymidine kinase (25 μM) was 112+7% of Control; with Thymidine kinase (50 μM) it was 96+5% of Control; in the assay with Thymidine kinase (100 μM), 76+4% of Control. In addition, the “DNA polymerase α” value on DNA polymerase α (25 μM) was 76+5% of Control; at DNA polymerase α (100 μM), 52+4% of Control. Further, the “DNA polymerase activity time course, in words” value at DNA polymerase α is “activity remained suppressed at 60 and 90 min”. Besides, the values for the Thymidine diphosphate kinase in assay [2] (50 μM) and in [2] (100 μM) were 32+3% of Control and 26+3% of Control, respectively.
